According to patent publication US20240287089A1, “Preparation and Uses of 7-Azaindenoisoquinolines” (Purdue Research Foundation, priority 0001, published 2024):
Where two headings read alike, the source gives them in different places.

Assays:
[1] = system: RS4;11 human leukemia cells; assay: RS4;11 xenograft in female NOD SCID mice; assay type: in vivo
Experimental: (§1) Xenograft Studies. […] JQ1 was employed as a positive control.
The compounds were also evaluated in an RS4;11 human leukemia xenograft model (FIGS. 20 and 21). Treatment was started 12 days after tumor inoculation, with drugs being administered on days 1-5 and 11-15 after the start of treatment. Animal weights and tumor volumes were determined at 12, 15, 19, 22, and 25 days after tumor inoculation.

[2] = system: MOLT-4 human leukemia cells; assay: MOLT-4 xenograft in female NOD SCID mice; assay type: in vivo; settings: 20 mg/kg IV, 24 days after tumor inoculation
Text: as §1

γ-H2AX [3] = assay: Western blot of RD-ES tumor xenograft tissue; assay type: in vivo, human
Text: (§2) In several cases, the levels of c-Myc were more greatly depressed at the lower dose level. For examples, see the 9-hour data for G104 in Tables 17 and 18 and the 6-hour data in Table 19. […] Overall, there are many unexpected and unexplained aspects of the data in Tables 17-19, which are highly variable and also highly dependent on cell type. In particular, drug-induced increases in c-Myc expression relative to control and the larger changes in c-Myc expression seen at lower vs. higher doses are counterintuitive and unexplained.

c-Myc [4] = assay: Western blot of RD-ES tumor xenograft tissue; assay type: in vivo, human
Text: as §2

γ-H2AX [5] = assay: Western blot of MOLT-4 tumor xenograft tissue; assay type: in vivo, human
Text: as §2

c-Myc [6] = assay: Western blot of RS4;11 tumor xenograft tissue; assay type: in vivo, human
Text: as §2

in vivo = assay type: in vivo
[7] = system: RD-ES human sarcoma tumor cells; assay: RD-ES xenograft in female NOD SCID mice; assay type: in vivo; settings: 20 mg/kg IV
Experimental: as §1
Similar studies were performed after inoculation of female NOD SCID mice with RD-ES human sarcoma tumor cells (FIGS. 16-19). The tumors grew much more rapidly and treatment was started on day 8 after tumor inoculation, with measurements of body weights and tumor sizes being made on days 8, 12, 15, 19, and 22 after tumor inoculation. […] The average RD-ES tumor sizes were much larger than observed with MOLT-4 (2327±285 vs. 546±59 mm^3).

[8] = assay type: in vivo
[9] = in vivo, iv, 20 mg/kg
Experimental: Brain Penetration Studies. […] The concentrations were determined by LC-MS/MS with direct measurement of the plasma samples. The brain tissue was homogenized with water using a 3:1 ratio of water (mL) to brain (g) before determination of the concentrations (ng/mL) in the brain homogenates, and the homogenate values then were multiplied by a factor of 4 to obtain the brain concentrations (ng/g).

γ-H2AX [10] = assay: Western blot of RS4;11 tumor xenograft tissue; assay type: in vivo, human
c-Myc [11] = assay: Western blot of MOLT-4 tumor xenograft tissue; assay type: in vivo, human

## COc1cc2c3c(n(CCCNCCO)c(=O)c2cc1OC)-c1nc2c(cc1C3=O)OCO2 [G105, 6-(3-((2-Hydroxyethyl)amino)propyl)-2,3-dimethoxy-5H-[1,3]dioxolo[4″,5″:5′,6′]pyrido[3′,2′:4,5]cyclopenta[1,2-c]isoquinoline-5,12(6H)-dione]
[1]; 20 mg/kg IV
  toxicity estimated from decrease in animal weight: most toxic
[1]; IV days 1-5 and 11-15, G105 20 mg/kg, G104 15 and 30 mg/kg
  reduction of tumor volume: most potent
[2]
  average animal weight relative to initial body weight: 80.9±1.1%
γ-H2AX [3]; IV 10 mg/kg, 3 h
  γ-H2AX/GAPDH, % Relative to Vehicle: 145.80 ± 32.79%
γ-H2AX [3]; IV 10 mg/kg, 6 h
  γ-H2AX/GAPDH, % Relative to Vehicle: 111.73 ± 14.44%
γ-H2AX [3]; IV 20 mg/kg, 3 h
  γ-H2AX/GAPDH, % Relative to Vehicle: 134.62 ± 18.03%
γ-H2AX [3]; IV 20 mg/kg, 6 h
  γ-H2AX/GAPDH, % Relative to Vehicle: 109.81 ± 27.72%
c-Myc [4]; IV 10 mg/kg, 3 h
  c-Myc/GAPDH, % Relative to Vehicle: 128.18 ± 13.67%
c-Myc [4]; IV 10 mg/kg, 6 h
  c-Myc/GAPDH, % Relative to Vehicle: 69.45 ± 15.02%
c-Myc [4]; IV 20 mg/kg, 3 h
  c-Myc/GAPDH, % Relative to Vehicle: 154.98 ± 17.80%
c-Myc [4]; IV 20 mg/kg, 6 h
  c-Myc/GAPDH, % Relative to Vehicle: 71.97 ± 14.55%
γ-H2AX [5]; MOLT-4, IV 10 mg/kg, 3 h
  γ-H2AX/GAPDH, % Relative to Vehicle: 60.98 ± 8.93%
γ-H2AX [5]; MOLT-4, IV 10 mg/kg, 9 h
  γ-H2AX/GAPDH, % Relative to Vehicle: 172.03 ± 47.41%
γ-H2AX [5]; MOLT-4, IV 20 mg/kg, 3 h
  γ-H2AX/GAPDH, % Relative to Vehicle: 56.62 ± 11.87%
γ-H2AX [5]; MOLT-4, IV 20 mg/kg, 9 h
  γ-H2AX/GAPDH, % Relative to Vehicle: 109.66 ± 28.34%
c-Myc [6]; RS4;11, IV 10 mg/kg, 3 h
  c-Myc/GAPDH, % Relative to Vehicle: 102.74 ± 3.45%
c-Myc [6]; RS4;11, IV 10 mg/kg, 9 h
  c-Myc/GAPDH, % Relative to Vehicle: 74.98 ± 3.52%
c-Myc [6]; RS4;11, IV 20 mg/kg, 3 h
  c-Myc/GAPDH, % Relative to Vehicle: 100.30 ± 16.76%
c-Myc [6]; RS4;11, IV 20 mg/kg, 9 h
  c-Myc/GAPDH, % Relative to Vehicle: 80.45 ± 3.93%
In vivo; RS4;11, 3 h, IV 10 mg/kg
  Mean Tumor/Plasma Ratio: 62.3 ± 17.7
In vivo; RS4;11, 3 h, IV 20 mg/kg
  Mean Tumor/Plasma Ratio: 111 ± 18
In vivo; RS4;11, 9 h, IV 10 mg/kg
  Mean Tumor/Plasma Ratio: 185 ± 25
In vivo; RS4;11, 9 h, IV 20 mg/kg
  Mean Tumor/Plasma Ratio: 383 ± 183
[7]
  potency on tumor size: most potent
[8]; MOLT-4, 3 h, IV 10 mg/kg
  Mean Tumor/Plasma Ratio: 50 ± 13.4
[8]; MOLT-4, 9 h, IV 10 mg/kg
  Mean Tumor/Plasma Ratio: 357 ± 180
[8]; MOLT-4, 9 h, IV 20 mg/kg
  Mean Tumor/Plasma Ratio: 326 ± 102
[9]; male, CD1, mouse
  AUCInf: 2949 ng·h/mL
  AUClast: 2847 ng·h/mL
  C0: 3904 ng/mL
  Cl_obs: 113 mL/min/kg
  MRTInf—obs: 4.12 h
  T1/2: 6.18 h
[9]; male, CD1, mouse, 0.25 h
  Brain/Plasma Conc Ratio: 0.42
[9]; male, CD1, mouse, 0.5 h
  Brain/Plasma Conc Ratio: 0.44
[9]; male, CD1, mouse, 1 h
  Brain/Plasma Conc Ratio: 0.73
[9]; male, CD1, mouse, 2 h
  Brain/Plasma Conc Ratio: 1.45
[9]; male, CD1, mouse, 4 h
  Brain/Plasma Conc Ratio: 2.71
[9]; male, CD1, mouse, 8 h
  Brain/Plasma Conc Ratio: 10.2
[9]; mouse
  AUClast: 9698 ng·h/g
γ-H2AX [10]; RS4;11, IV 10 mg/kg, 3 h
  γ-H2AX/GAPDH, % Relative to Vehicle: 67.00 ± 2.90%
γ-H2AX [10]; RS4;11, IV 10 mg/kg, 9 h
  γ-H2AX/GAPDH, % Relative to Vehicle: 166.37 ± 40.45%
γ-H2AX [10]; RS4;11, IV 20 mg/kg, 3 h
  γ-H2AX/GAPDH, % Relative to Vehicle: 219.29 ± 82.49%
γ-H2AX [10]; RS4;11, IV 20 mg/kg, 9 h
  γ-H2AX/GAPDH, % Relative to Vehicle: 540.94 ± 97.90%
c-Myc [11]; MOLT-4, IV 10 mg/kg, 3 h
  c-Myc/GAPDH, % Relative to Vehicle: 110.56 ± 4.90%
c-Myc [11]; MOLT-4, IV 10 mg/kg, 9 h
  c-Myc/GAPDH, % Relative to Vehicle: 84.53 ± 6.26%
c-Myc [11]; MOLT-4, IV 20 mg/kg, 3 h
  c-Myc/GAPDH, % Relative to Vehicle: 96.74 ± 9.71%
c-Myc [11]; MOLT-4, IV 20 mg/kg, 9 h
  c-Myc/GAPDH, % Relative to Vehicle: 83.89 ± 10.06%
